# In PMC8391421, “Identification of Novel Positive Allosteric Modulators of Neurotrophin Receptors for the Treatment of Cognitive Dysfunction” (Cells, 2021):
# Assays:
# [1] = biological target: T1, fibroblast growth factor receptor (FGFR1) (Homo sapiens, UniProt P11362); assay: FGFR1 PathHunter cell-based assay (U2OS-FGFR1)
# T1 construct: host or cells: U2OS (human osteosarcoma)
# Source text: The human osteosarcoma cell lines U2OS-TrkA/p75, U2OS-TrkB/p75, U2OS-TrkC/p75, U2OS-ratTrkA/p75, U2OS-FGFR1 (fibroblast growth factor receptor 1) as well as the human embryonic kidney cell line HEK293-IGF1R (insulin-like growth factor 1 receptor) from DiscoverX, Birmingham, United Kingdom, were used in the in vitro experiments. Eagle’s minimum essential medium (EMEM) ATCC #30-2003 from LGC Standards AB, Borås, Sweden; Leibovitz’s L15 medium, RPMI1640, fetal bovine serum, horse serum, penicillin/streptomycin, and Hoechst dye purchased from Invitrogen, Gothenburg, Sweden, were also used. Black poly-D-lysine coated 384-well plates (Viewplate) were purchased from PerkinElmer, Upplands Väsby, Sweden, and white 384-well assay plates(3570) were purchased from Corning, Amsterdam, Netherlands. […] Recombinant intracellular domain (ICD) of TrkA (08-186) and single site biotinylated activated (08-486-20N) or non-activated TrkA (08-486-23N) were obtained from Carna Biosciences, Odense, Denmark. […]
# U2OS cells were maintained subconfluent in EMEM supplemented with 10% FBS and penicillin/streptomycin/hygromycin and G418. […] The functional (complemented) β-gal will hydrolyze a substrate to generate a luminescence signal. The generated luminescence was read using an EnVision plate reader from PerkinElmer, Upplands Väsby, Sweden, or an ID5 plate reader from Molecular Devices, Berkshire, RG41 5TS UK. […]
# TrkA = biological target: T2, TrkA (Homo sapiens, UniProt P04629); assay: TrkA PathHunter cell-based assay (U2OS-TrkA/p75)
# T2 construct: host or cells: U2OS (human osteosarcoma), co-expressing p75 and SHC-1 fused to the enzyme acceptor
# Procedure: U2OS cells were maintained subconfluent in EMEM supplemented with 10% FBS and penicillin/streptomycin/hygromycin and G418. One day prior to the experiment, 5000 cells of EMEM supplemented with 0.5% horse serum were seeded in each well of a 384-well white plate. The assay was performed as previously described. Briefly, the TrkA or TrkB cell-based PathHunter® assays use enzyme fragment complementation (EFC) technology for the complementation of two β-galactosidase (β-gal) fragments in order to study protein–protein interactions. Upon activation with ligand, TrkA or TrkB are phosphorylated on several tyrosine residues, including tyrosine 490, leading to an interaction with SHC-1. In the PathHunter® assays, the Trk-receptors are fused to an enzyme donor tag, and SHC-1 is fused to a larger part of β-gal called an enzyme acceptor. The interactions between the recombinant enzyme donor, i.e., the Trk-receptor, with an enzyme acceptor, i.e., SHC-1, leads to an active β-gal enzyme. The functional (complemented) β-gal will hydrolyze a substrate to generate a luminescence signal. The generated luminescence was read using an EnVision plate reader from PerkinElmer, Upplands Väsby, Sweden, or an ID5 plate reader from Molecular Devices, Berkshire, RG41 5TS UK. […] Min- and Max-control wells were included on each plate.
# Both Toltrazuril and Ponazuril are registered veterinary products prescribed for parasitic infections in animals. […] The activation of Trk-receptors leads to an intracellular interaction between the Trk-receptor and SHC-1 and thereby to the complementation of β-gal, which will render in a functional enzyme. β-gal will hydrolyze a substrate to generate luminescence, which is proportional to the number of activated receptors.
# T2 sequence (P04629 33-796): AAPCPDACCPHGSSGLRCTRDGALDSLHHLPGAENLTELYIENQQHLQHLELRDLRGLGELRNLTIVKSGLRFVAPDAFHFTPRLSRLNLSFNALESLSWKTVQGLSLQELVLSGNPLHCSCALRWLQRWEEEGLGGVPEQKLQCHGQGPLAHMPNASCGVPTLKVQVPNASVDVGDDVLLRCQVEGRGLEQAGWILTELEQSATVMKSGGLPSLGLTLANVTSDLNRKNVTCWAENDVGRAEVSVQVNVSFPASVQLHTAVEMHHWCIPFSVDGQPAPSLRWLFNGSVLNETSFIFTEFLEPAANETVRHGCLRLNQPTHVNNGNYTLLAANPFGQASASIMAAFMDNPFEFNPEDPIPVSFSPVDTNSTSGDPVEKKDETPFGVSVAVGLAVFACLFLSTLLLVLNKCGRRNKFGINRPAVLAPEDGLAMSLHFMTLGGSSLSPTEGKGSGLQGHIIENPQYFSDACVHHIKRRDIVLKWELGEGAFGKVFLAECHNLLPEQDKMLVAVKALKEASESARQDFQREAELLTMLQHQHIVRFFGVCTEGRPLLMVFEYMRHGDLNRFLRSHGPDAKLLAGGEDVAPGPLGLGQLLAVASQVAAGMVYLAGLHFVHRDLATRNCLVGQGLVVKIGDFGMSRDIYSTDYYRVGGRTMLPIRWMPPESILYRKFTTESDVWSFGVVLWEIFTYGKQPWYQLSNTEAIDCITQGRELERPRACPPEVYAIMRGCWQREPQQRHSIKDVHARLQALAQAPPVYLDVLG
# T1 sequence (P11362 22-822): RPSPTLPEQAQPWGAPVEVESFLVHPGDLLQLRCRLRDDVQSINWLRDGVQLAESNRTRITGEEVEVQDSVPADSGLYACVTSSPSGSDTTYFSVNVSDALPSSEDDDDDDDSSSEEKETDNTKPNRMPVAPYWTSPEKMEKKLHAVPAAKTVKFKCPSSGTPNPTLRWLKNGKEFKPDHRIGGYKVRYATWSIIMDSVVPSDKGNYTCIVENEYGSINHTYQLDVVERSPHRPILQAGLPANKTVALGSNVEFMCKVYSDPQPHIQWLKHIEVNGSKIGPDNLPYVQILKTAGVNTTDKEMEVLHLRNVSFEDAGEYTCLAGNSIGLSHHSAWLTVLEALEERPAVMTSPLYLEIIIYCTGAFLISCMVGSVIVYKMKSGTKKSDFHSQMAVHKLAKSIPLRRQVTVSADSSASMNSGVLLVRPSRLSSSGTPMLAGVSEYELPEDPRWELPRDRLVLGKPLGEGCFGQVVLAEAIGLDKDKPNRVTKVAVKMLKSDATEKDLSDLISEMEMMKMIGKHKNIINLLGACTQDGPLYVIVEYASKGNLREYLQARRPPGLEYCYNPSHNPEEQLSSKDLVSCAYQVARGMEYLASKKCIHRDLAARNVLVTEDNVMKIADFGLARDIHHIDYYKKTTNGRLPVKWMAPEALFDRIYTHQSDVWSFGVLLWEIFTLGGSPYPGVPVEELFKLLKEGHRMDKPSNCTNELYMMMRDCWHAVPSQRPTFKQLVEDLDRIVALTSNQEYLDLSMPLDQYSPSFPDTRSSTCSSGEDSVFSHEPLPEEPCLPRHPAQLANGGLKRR
smiles,measurement,setting,value
"Cc1cc(-n2c(=O)[nH]c(=O)n(C)c2=O)ccc1Oc1ccc(S(=O)(=O)C(F)(F)F)cc1 [ACD855, Toltrazuril-sulfone]",EC50,[1],800 nM
same,FGFR1 Effect (efficacy),[1],44%
same,modulation of TrkA activity over NGF dose-response curve,"TrkA; 0.3, 1 and 3 µM compound with a wide range of NGF concentrations",positively modulated TrkA activity
same,EC50,TrkA; PathHunter cell-based assay,1900 nM
same,TrkA Effect (efficacy),TrkA; PathHunter cell-based assay,144%
same,activation of TrkA-receptor by compound itself,"TrkA; without ligand, 100% = 30 ng/mL ligand",45%
